# From paper PMC9007951, “Systematically evaluating DOTATATE and FDG as PET immuno-imaging tracers of cardiovascular inflammation” (Scientific Reports, 2022)
# Like-named read-outs stand apart in the source and are kept apart here.
# Test: Timed organ biodistribution of [^64Cu]Cu-DOTATATE by ex vivo gamma counting
# Assay type: in vivo, mice
# Conditions: mouse, intravenous, 1.85 MBq, total radioactivity, median (IQR); for tissue uptake at 2 h: 120 min after injection; for tissue uptake at 1 min: 1 min after injection; for tissue uptake at 0.5 h: 30 min after injection; for tissue uptake at 5 min: 5 min after injection; for tissue uptake at 1 h: 60 min after injection; for tissue uptake at 0.25 h: 15 min after injection
# Method: Wild-type and atherosclerotic animals were injected with approximately 1.85 MBq of [^64Cu]Cu-DOTATATE and euthanized at either 1, 5, 15, 30, 60 or 120 min after injection (Supplementary Fig. S1A) to evaluate the tracer’s biodistribution. After euthanasia, an insulin syringe was used to collect blood samples from the right ventricle. Blood samples were used for the establishment of pharmacokinetics profile. Mice were then perfused with 20 mL of phosphate-buffered saline (PBS) and tissues of interest (heart, aorta, bone marrow, spleen, liver, stomach, bladder, kidneys, intestines, lungs, adrenal gland, muscles and pancreas) were harvested. Tissues were blotted for gamma counting on a Wizard2 2480 automatic gamma counter (Perkin Elmer, Waltham, MA). Values were corrected for decay and normalized to tissue weight to express radioactivity concentration as percentage injected dose per gram (%ID/g). […] To investigate the tracer’s distribution within different blood compartments, after gamma counting, 100 μL of blood were spun down at 2000 g for 15 min at 4 °C. Plasma (supernatant) and cells (pellet) were gamma counted and expressed as percentage of total activity. The remainder of the blood was separated using Lymphoprep density gradient medium (Nycomed Pharma, Zurich, Switzerland) following manufacturer’s instructions. Percentage of activity in mononuclear and polynuclear cells was calculated.
# [1] = liver, female C57BL/6 mice, N=3-7, read-out: Tissue radioactivity, liver
# [2] = lungs, female Apoe^-/- mice 12 weeks on Western Diet, N=3-8, read-out: Tissue radioactivity, lungs
# [3] = lungs, female C57BL/6 mice, N=3-7, read-out: Tissue radioactivity, lungs
# [4] = lymph node, female Apoe^-/- mice 12 weeks on Western Diet, N=3-8, read-out: Tissue radioactivity, lymph node
# [5] = lymph node, female C57BL/6 mice, N=3-7, read-out: Tissue radioactivity, lymph node
# [6] = muscle, female Apoe^-/- mice 12 weeks on Western Diet, N=3-8, read-out: Tissue radioactivity, muscle
# [7] = muscle, female C57BL/6 mice, N=3-7, read-out: Tissue radioactivity, muscle
# [8] = pancreas, female Apoe^-/- mice 12 weeks on Western Diet, N=3-8, read-out: Tissue radioactivity, pancreas
# [9] = pancreas, female C57BL/6 mice, N=3-7, read-out: Tissue radioactivity, pancreas
# [10] = small intestine, female Apoe^-/- mice 12 weeks on Western Diet, N=3-8, read-out: Tissue radioactivity, small intestine
# [11] = small intestine, female C57BL/6 mice, N=3-7, read-out: Tissue radioactivity, small intestine
# [12] = spleen, female Apoe^-/- mice 12 weeks on Western Diet, N=3-8, read-out: Tissue radioactivity, spleen
# [13] = spleen, female C57BL/6 mice, N=3-7, read-out: Tissue radioactivity, spleen
# [14] = stomach, female Apoe^-/- mice 12 weeks on Western Diet, N=3-8, read-out: Tissue radioactivity, stomach
# [15] = stomach, female C57BL/6 mice, N=3-7, read-out: Tissue radioactivity, stomach
# [16] = tail, female Apoe^-/- mice 12 weeks on Western Diet, N=3-8, read-out: Tissue radioactivity, tail
# [17] = tail, female C57BL/6 mice, N=3-7, read-out: Tissue radioactivity, tail
# [18] = thoracic aorta, female Apoe^-/- mice 12 weeks on Western Diet, N=3-8, read-out: Tissue radioactivity, thoracic aorta
# [19] = thoracic aorta, female C57BL/6 mice, N=3-7, read-out: Tissue radioactivity, thoracic aorta
smiles,measurement,setting,value
"C[C@@H](O)[C@H](NC(=O)[C@@H]1CSSC[C@H](NC(=O)[C@@H](Cc2ccccc2)NC(=O)CN2CCN(CC(=O)O)CCN(CC(=O)O)CCN(CC(=O)O)CC2)C(=O)N[C@@H](Cc2ccc(O)cc2)C(=O)N[C@H](Cc2c[nH]c3ccccc23)C(=O)N[C@@H](CCCCN)C(=O)N[C@@H]([C@@H](C)O)C(=O)N1)C(=O)O [[^64Cu]Cu-DOTATATE, metal not drawn]",tissue uptake at 2 h,"liver, female Apoe^-/- mice 12 weeks on Western Diet, N=3-8, read-out: Tissue radioactivity, liver",6.3 %ID/g
same,tissue uptake at 1 min,[1],10 %ID/g
same,tissue uptake at 0.5 h,[1],6.4 %ID/g
same,tissue uptake at 1 min,[2],2.1 %ID/g
same,tissue uptake at 5 min,[2],2.6 %ID/g
same,tissue uptake at 0.5 h,[2],1.6 %ID/g
same,tissue uptake at 1 h,[2],2.5 %ID/g
same,tissue uptake at 2 h,[2],2.8 %ID/g
same,tissue uptake at 5 min,[3],3.2 %ID/g
same,tissue uptake at 0.5 h,[3],1.3 %ID/g
same,tissue uptake at 1 h,[3],1.1 %ID/g
same,tissue uptake at 1 min,[4],2.6 %ID/g
same,tissue uptake at 5 min,[4],3.2 %ID/g
same,tissue uptake at 0.25 h,[4],3 %ID/g
same,tissue uptake at 0.5 h,[4],2.4 %ID/g
same,tissue uptake at 1 h,[4],2.1 %ID/g
same,tissue uptake at 1 min,[5],3 %ID/g
same,tissue uptake at 5 min,[5],4.7 %ID/g
same,tissue uptake at 0.25 h,[5],3.2 %ID/g
same,tissue uptake at 1 h,[5],1.3 %ID/g
same,tissue uptake at 2 h,[5],0.6 %ID/g
same,tissue uptake at 1 min,[6],1.2 %ID/g
same,tissue uptake at 5 min,[6],1.4 %ID/g
same,tissue uptake at 0.25 h,[6],0.6 %ID/g
same,tissue uptake at 0.5 h,[6],0.7 %ID/g
same,tissue uptake at 1 h,[6],0.4 %ID/g
same,tissue uptake at 2 h,[6],0.3 %ID/g
same,tissue uptake at 1 min,[7],2 %ID/g
same,tissue uptake at 5 min,[7],1.6 %ID/g
same,tissue uptake at 0.5 h,[7],0.5 %ID/g
same,tissue uptake at 1 h,[7],0.3 %ID/g
same,tissue uptake at 2 h,[7],0.3 %ID/g
same,tissue uptake at 1 min,[8],4.7 %ID/g
same,tissue uptake at 5 min,[8],4.1 %ID/g
same,tissue uptake at 0.25 h,[8],3.5 %ID/g
same,tissue uptake at 0.5 h,[8],3.4 %ID/g
same,tissue uptake at 1 h,[8],2.7 %ID/g
same,tissue uptake at 2 h,[8],2.6 %ID/g
same,tissue uptake at 1 min,[9],8.7 %ID/g
same,tissue uptake at 5 min,[9],5.3 %ID/g
same,tissue uptake at 0.25 h,[9],6.1 %ID/g
same,tissue uptake at 0.5 h,[9],5.8 %ID/g
same,tissue uptake at 1 h,[9],4.8 %ID/g
same,tissue uptake at 2 h,[9],2.6 %ID/g
same,tissue uptake at 1 min,[10],1.4 %ID/g
same,tissue uptake at 5 min,[10],1.2 %ID/g
same,tissue uptake at 0.5 h,[10],3.1 %ID/g
same,tissue uptake at 2 h,[10],7.2 %ID/g
same,tissue uptake at 1 min,[11],3 %ID/g
same,tissue uptake at 5 min,[11],2 %ID/g
same,tissue uptake at 0.25 h,[11],1.7 %ID/g
same,tissue uptake at 0.5 h,[11],2.6 %ID/g
same,tissue uptake at 1 h,[11],2.4 %ID/g
same,tissue uptake at 1 min,[12],2 %ID/g
same,tissue uptake at 5 min,[12],1.1 %ID/g
same,tissue uptake at 0.25 h,[12],1.2 %ID/g
same,tissue uptake at 0.5 h,[12],1.1 %ID/g
same,tissue uptake at 1 h,[12],0.8 %ID/g
same,tissue uptake at 2 h,[12],1.2 %ID/g
same,tissue uptake at 5 min,[13],1.5 %ID/g
same,tissue uptake at 0.5 h,[13],0.7 %ID/g
same,tissue uptake at 1 h,[13],0.6 %ID/g
same,tissue uptake at 2 h,[13],0.5 %ID/g
same,tissue uptake at 1 min,[14],2.1 %ID/g
same,tissue uptake at 5 min,[14],2.4 %ID/g
same,tissue uptake at 2 h,[14],5 %ID/g
same,tissue uptake at 1 min,[15],2.3 %ID/g
same,tissue uptake at 5 min,[15],2.4 %ID/g
same,tissue uptake at 0.25 h,[15],5 %ID/g
same,tissue uptake at 0.5 h,[15],7.8 %ID/g
same,tissue uptake at 1 h,[15],8 %ID/g
same,tissue uptake at 2 h,[15],3.2 %ID/g
same,tissue uptake at 5 min,[16],2.5 %ID/g
same,tissue uptake at 0.25 h,[16],2.5 %ID/g
same,tissue uptake at 0.5 h,[16],3.1 %ID/g
same,tissue uptake at 1 h,[16],2 %ID/g
same,tissue uptake at 2 h,[16],2.7 %ID/g
same,tissue uptake at 1 min,[17],3.5 %ID/g
same,tissue uptake at 5 min,[17],2.7 %ID/g
same,tissue uptake at 1 h,[17],1.6 %ID/g
same,tissue uptake at 2 h,[17],0.6 %ID/g
same,tissue uptake at 1 min,[18],2.9 %ID/g
same,tissue uptake at 5 min,[18],2.1 %ID/g
same,tissue uptake at 0.25 h,[18],2 %ID/g
same,tissue uptake at 1 h,[18],2.1 %ID/g
same,tissue uptake at 2 h,[18],2.1 %ID/g
same,tissue uptake at 1 min,[19],3.2 %ID/g
same,tissue uptake at 5 min,[19],3.1 %ID/g
same,tissue uptake at 0.25 h,[19],1.6 %ID/g
same,tissue uptake at 0.5 h,[19],1.3 %ID/g
same,tissue uptake at 1 h,[19],1.2 %ID/g
same,tissue uptake at 2 h,[19],1 %ID/g
